In US8178709B2, “Iron preparation suitable for pharmaceutical formulation and process for the preparation thereof” (BioLink Life Sciences, Inc., priority 2009, dated 2012):

Tests used:
macrophages = details: ferric citrate-treated macrophages; cited from earlier work
human apotransferrin = human apotransferrin (Homo sapiens, UniProt P02787); assay: Iron binding to human apotransferrin (method of Bates, absorbance at 470 nm); details: Tris buffer with bicarbonate, pH 7.5, 25.0° C., FIG. 1
Excerpt: The major iron transport pool in human serum is iron bound to apotransferrin, an 80 kDa bilobal protein with two iron binding sites. The function of apotransferrin is: i) to bind iron and as transferrin (iron-laden apotransferrin) move iron from storage depots (ferritin) to various cell receptors; ii) to prevent iron from engaging in redox reactions which produce toxic free radicals; and iii) to prevent bacterial acquisition of this essential nutrient. Consequently, the best way to introduce iron into the normal metabolic pool is to deliver it to apotransferrin. […] Therefore, we measured the kinetics of Fe-transferrin formation from iron preparations of the invention and compared the kinetics to the kinetics of Fe-transferrin formation from commercial soluble ferric pyrophosphate and ferric sulfate-NTA complex at identical conditions according to the method of Bates, et al. [Bates, G. W., Billups, C. […]
The following test articles were evaluated in this study: Products 2-1 through 2-4 (described in Example 2); soluble ferric pyrophosphate (SFP), lot 112362 manufactured by The Dr. Paul Lohmann Chemical Company, Emmerthal, Germany (“Lohmann”); and ferric sulfate:NTA chelate.
Experimental Details. […] The binding of iron to apotransferrin was monitored at 470 nm, the absorption maximum for ferric transferrin. […]

Sequence of human apotransferrin (P02787 20-698): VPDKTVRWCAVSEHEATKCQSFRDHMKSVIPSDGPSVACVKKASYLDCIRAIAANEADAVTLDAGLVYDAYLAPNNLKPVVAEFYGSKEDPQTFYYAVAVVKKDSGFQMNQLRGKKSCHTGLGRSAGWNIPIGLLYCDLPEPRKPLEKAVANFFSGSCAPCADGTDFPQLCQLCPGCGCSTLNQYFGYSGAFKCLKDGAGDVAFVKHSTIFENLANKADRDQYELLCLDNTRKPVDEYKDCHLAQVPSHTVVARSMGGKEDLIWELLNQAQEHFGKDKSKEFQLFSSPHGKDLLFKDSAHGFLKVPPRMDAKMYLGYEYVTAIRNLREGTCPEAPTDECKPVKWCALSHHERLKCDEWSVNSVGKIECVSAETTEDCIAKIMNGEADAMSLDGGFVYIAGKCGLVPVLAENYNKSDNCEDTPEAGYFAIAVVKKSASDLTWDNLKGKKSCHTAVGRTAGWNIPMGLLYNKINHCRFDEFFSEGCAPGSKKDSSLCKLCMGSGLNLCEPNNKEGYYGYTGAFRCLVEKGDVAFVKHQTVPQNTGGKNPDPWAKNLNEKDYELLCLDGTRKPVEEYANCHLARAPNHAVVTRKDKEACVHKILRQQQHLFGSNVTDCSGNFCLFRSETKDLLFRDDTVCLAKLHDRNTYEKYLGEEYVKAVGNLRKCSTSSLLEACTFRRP

Substance | Level of lipid peroxidation (macrophages) | Phagocytic capacity (macrophages) | Extent (efficiency) of iron uptake by human apotransferrin (human apotransferrin)
ferric citrate | significantly elevated | inhibited in a dose-related manner | –
ferric sulfate:NTA chelate [ferric sulfate-NTA chelate] | – | – | near quantitative efficiency
soluble ferric pyrophosphate | – | – | near quantitative efficiency
